Source: patent US11479616B2, “Method for preparing okra polygalacturonic acid having uric acid-lowering effect” (Institute of Biological and Medical Engineering, Guangdong …, priority 2020, dated 2022)

Tests used:
[1] = tested on: mice with high uric acid levels; experiment: Evaluation of uric acid-lowering effect in high uric acid mouse models (blood uric acid, blood creatinine, serum urea nitrogen); assay type: in vivo, C57BL/6 mice; conditions: 100 mg/kg of body weight, mean ± SD, n = 6
Experimental: (§1) C57BL/6 mice (16.7-20.4 g, 6-7 weeks old) were provided by the Guangdong Medical Laboratory Animal Center, and quarantined for 4 days before the trial. During the trial, the mice were kept in a house with stable conditions with a 12 h:12 h light-dark cycle and given ad libitum access to food and water.
The mice were divided according to their weights into a negative control group (normal mice), a model control group (mice with high uric acid levels), a positive control group (mice with high uric acid levels, administrated with allopurinol tablets), a low-dosage group (mice with high uric acid levels, […] acid), and a high-dosage group (mice with high uric acid levels, […]), six mice in each group. The mice of each group were treated with a corresponding solution through intragastric administration with a dosage of 20 mL per kg of body weight, wherein the mice of the positive control group were treated with a 5 mg/mL allopurinol solution, the mice of the negative control group and the model control group were treated with purified water, one administration per day. […] The mice were treated for 30 successive days.
Method for preparing OP1 samples: 45 mg of the okra polygalacturonic acid was weighed out and mixed well with a certain volume of purified water. The mixture was further added with purified water to a final volume of 4.5 mL to give a 10 mg/mL high-dosage solution, which shall be shaken well before used. 0.9 mL of the high-dosage solution was added with purified water to a final volume of 3.6 mL and mixed well to give a 2.5 mg/mL low-dosage solution, which shall be shaken well before used. […]
(§2) 3 hours after the last administration, the mice were anaesthetized using isoflurane, and blood was collected from each mouse by removing eyeballs. […] Blood uric acid levels, blood creatinine levels, and serum urea nitrogen levels were measured by an automatic biochemical analyzer, and XOD activities were determined using an ELISA kit.

XOD = experiment: Serum XOD activity of high uric acid mouse models, determined using an ELISA kit; assay type: in vivo, C57BL/6 mice; conditions: high uric acid mice, 100 mg/kg of body weight, intragastric, 30 days, mean ± SD, n = 6
Experimental: as §1
The mice were divided according to their weights into a negative control group (normal mice), a model control group (mice with high uric acid levels), a positive control group (mice with high uric acid levels, administrated with allopurinol tablets), a low-dosage group (mice with high uric acid levels, administrated with 50 mg/kg of the okra polygalacturonic acid), and a high-dosage group (mice with high uric acid levels, administrated with 200 mg/kg of the okra polygalacturonic acid), six mice in each group. […]
as §2

`Oc1ncnc2[nH]ncc12` [Positive control, allopurinol] gave a blood creatinine ([1]; intragastric, 30 days) of 30.2 ± 5.7 µmol/L, a serum urea nitrogen ([1]; intragastric, 30 days) of 23.3 ± 4.1 mmol/L and a Blood uric acid ([1]; one intragastric administration per day for 30 days, serum 3 hours after last administration) of 134.8 ± 19.9 µmol/L. For the same compound, the XOD activity (XOD) was 19.8 ± 2.2 U/L.
